Assays:
[1] = Compatibility / phase separation of amphiphilic compound with amphiphilic surfactant system in water (microscope, visual appearance); type: physicochemical; conditions: concentrations as in the label, SLES alone at 12 wt. %
Experimental: Further, in certain embodiments, the amphiphilic compound forms a separate phase from the amphiphilic surfactant system when the amphiphilic surfactant system and the amphiphilic compound are combined in water. In this respect, the separate phase is determined by combining from 5 wt. % up to 70 wt. % of a total concentration of the amphiphilic compound and the amphiphilic surfactant system, based on a total weight of the amphiphilic compound, the amphiphilic surfactant system, and water totaling 100 wt. %, with the ratio of the amphiphilic surfactant system to the amphiphilic compound ranging from 99:1 to 50:50, preferably from 90:10 to 60:40, more preferably from 80:20 to 70:30, and determining whether any objects larger than 150 nm are observed using a conventional microscope, preferably an Olympus IX71 conventional microscope, equipped with 100× oil objective.
With respect to the amphiphilic compounds being immiscible with a combination of the amphiphilic surfactant system and water, the amphiphilic compounds can form a separate phase from the amphiphilic surfactant system in water at 25° C. […]
The interfacial tension was measured using Sigma 701 tensiometer, and compatibility was observed using Olympus IX71 conventional microscope equipped with 100× oil objective, as described above.

[2] = Solubility of amphiphilic compound in pure water; type: physicochemical

Compound	solubility in water [2] [wt %)]	other results
sodium laureth sulfate [sodium laureth sulfate (SLES)]		visual appearance (FIG. 2) [1]: transparent, and therefore, no phase separation
CCCCCCCCCC[N+](C)(C)CCCCCCCCCC.[Cl-] [Maquat 4450, didecyldimethylammonium chloride]		solubility in water (in words) [2]: high water solubility
CCCCCCCCCCCCCOC(=O)CC(C(=O)OCCCCCCCCCCCCC)S(=O)(=O)O.[Na] (stereo not shown) [Sodium bis(tridecyl) sulfosuccinate]	< 1	
CCCCCCCCCCCCCCCCCC(=O)OCC[N+](C)(C)CCOC(=O)CCCCCCCCCCCCCCCCC.[Cl-] [DEEDMAC, Dimethylbis[2-[(1-oxooctadecyl)oxy]ethyl]ammonium chloride]	< 1	
